Values joined by “and” are separate entries in the source; they are usually repeats but may differ in a detail not shown here. Identical values can stand only once. Toxic doses and inconclusive results are not listed. How the source made its calls: active means survival T/C of 150% or more; inactive means T/C below 125% in these data.
Tested on: P388 leukemia ip, CD2F1 mice, survival T/C
Test: NCI In Vivo Anticancer Drug Screen. Data for tumor model P388 Leukemia (intraperitoneal) in CD2F1 (CDF1) mice
Conditions: endpoint: median survival time, higher = longer survival
In short: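 Mice carrying the transplanted tumor received test compound or vehicle. Survival was recorded in each group, and the value is the treated-group measurement divided by that of the vehicle-treated control group.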

[1] = dose: 50.0 mg/kg/injection, schedule: Q01DX009 (ip), vehicle: saline with Tween-80
[2] = dose: 100.0 mg/kg/injection, schedule: Q01DX009 (ip), vehicle: saline with Tween-80
[3] = dose: 200.0 mg/kg/injection, schedule: Q01DX009 (ip), vehicle: saline with Tween-80
[4] = dose: 0.63 mg/kg/injection, schedule: Q01DX009 (ip), vehicle: other
[5] = dose: 50.0 mg/kg/injection, schedule: Q01DX009 (ip), vehicle: other
[6] = dose: 400.0 mg/kg/injection, schedule: Q01DX009 (ip), vehicle: saline with Tween-80
[7] = dose: 50.0 mg/kg/injection, schedule: Q01DX009 (ip), vehicle: Klucel (hydroxypropylcellulose) (HPC)
[8] = dose: 100.0 mg/kg/injection, schedule: Q01DX009 (ip), vehicle: Klucel (hydroxypropylcellulose) (HPC)
[9] = dose: 60.0 mg/kg/injection, schedule: Q01DX005 (ip), vehicle: saline with Tween-80
[10] = dose: 120.0 mg/kg/injection, schedule: Q01DX005 (ip), vehicle: saline with Tween-80
[11] = dose: 240.0 mg/kg/injection, schedule: Q01DX005 (ip), vehicle: saline with Tween-80

Measured: T/C

O=C1COC(c2ccccc2O)=NN1Cc1ccccc1
inactive: [1] 94 % of control | [2] 92 % of control | [3] 99 % of control

Nc1ccc2c(NCCCCCCNc3c4ccccc4nc4cc(N)ccc34)c3ccccc3nc2c1
inactive: [4] 122 % of control

CC(=O)OCC1OC(n2cc(CI)nn2)C(OC(C)=O)C(OC(C)=O)C1OC(C)=O (stereo not drawn)
inactive: dose: 6.25 mg/kg/injection, schedule: Q01DX009 (ip), vehicle: distilled water + Tween-80 102 % of control and 103 % of control | dose: 12.5 mg/kg/injection, schedule: Q01DX009 (ip), vehicle: distilled water + Tween-80 103 % of control and 96 % of control | dose: 25.0 mg/kg/injection, schedule: Q01DX009 (ip), vehicle: distilled water + Tween-80 111 % of control and 115 % of control | dose: 50.0 mg/kg/injection, schedule: Q01DX009 (ip), vehicle: distilled water + Tween-80 102 % of control and 115 % of control | dose: 100.0 mg/kg/injection, schedule: Q01DX009 (ip), vehicle: distilled water + Tween-80 115 % of control

CCN(CC)C1CC(C)(O)Cc2cc3c(c(O)c21)C(=O)c1c(O)cc2c(c1C3=O)OC1OC2(C)C(O)C(N(C)C)C1O (stereo not drawn)
inactive: [5] 93 % of control

Brc1ccc(-c2csc(Nc3nc(-c4ccc(Br)cc4)cs3)n2)cc1
inactive: [2] 95 % of control | [3] 100 % of control | [6] 104 % of control

Cc1c(CCl)cc([N+](=O)[O-])cc1CCl
inactive: dose: 6.25 mg/kg/injection, schedule: Q01DX009 (ip), vehicle: Klucel (hydroxypropylcellulose) (HPC) 99 % of control | dose: 12.5 mg/kg/injection, schedule: Q01DX009 (ip), vehicle: Klucel (hydroxypropylcellulose) (HPC) 112 % of control and 114 % of control (2×) | dose: 25.0 mg/kg/injection, schedule: Q01DX009 (ip), vehicle: Klucel (hydroxypropylcellulose) (HPC) 116 % of control and 117 % of control and 120 % of control | [7] 114 % of control and 117 % of control

COc1ccc(N=Cc2cc3c(cc2Br)OCO3)cc1
inactive: dose: 25.0 mg/kg/injection, schedule: Q01DX009 (ip), vehicle: other 97 % of control | [5] 96 % of control | dose: 100.0 mg/kg/injection, schedule: Q01DX009 (ip), vehicle: other 94 % of control | dose: 200.0 mg/kg/injection, schedule: Q01DX009 (ip), vehicle: other 100 % of control | dose: 400.0 mg/kg/injection, schedule: Q01DX009 (ip), vehicle: other 100 % of control

CCOC(=O)C(CC)Oc1ccc(Cl)cc1 (stereo not drawn)
inactive: [7] 102 % of control | [8] 89 % of control

COc1cc2c(cc1C(C)=O)C=CC(C)(C)O2
inactive: dose: 22.5 mg/kg/injection, schedule: Q01DX005 (ip), vehicle: Klucel (hydroxypropylcellulose) (HPC) 100 % of control | dose: 45.0 mg/kg/injection, schedule: Q01DX005 (ip), vehicle: Klucel (hydroxypropylcellulose) (HPC) 100 % of control | dose: 90.0 mg/kg/injection, schedule: Q01DX005 (ip), vehicle: Klucel (hydroxypropylcellulose) (HPC) 94 % of control | dose: 180.0 mg/kg/injection, schedule: Q01DX005 (ip), vehicle: Klucel (hydroxypropylcellulose) (HPC) 98 % of control

C[N+]1=P(C)(C)N=P(C)(C)[N+](C)=P(C)(C)N=P1(C)C
inactive: dose: 12.5 mg/kg/injection, schedule: Q01DX009 (ip), vehicle: saline 95 % of control | dose: 25.0 mg/kg/injection, schedule: Q01DX009 (ip), vehicle: saline 95 % of control | dose: 50.0 mg/kg/injection, schedule: Q01DX009 (ip), vehicle: saline 116 % of control and 95 % of control

CCCCC[C@@H]1CCCC2C1CC[C@@H](CCCCCI)N2C(=O)OCC(Cl)(Cl)Cl (stereo partly drawn)
inactive: dose: 100.0 mg/kg/injection, schedule: Q04DX002 (ip), vehicle: saline with Tween-80 100 % of control | dose: 200.0 mg/kg/injection, schedule: Q04DX002 (ip), vehicle: saline with Tween-80 100 % of control | dose: 400.0 mg/kg/injection, schedule: Q04DX002 (ip), vehicle: saline with Tween-80 105 % of control

COC(=O)c1[nH]c(=O)c(C#N)c(C(=O)OC)c1C(=O)c1ccccc1
inactive: [9] 99 % of control | [10] 99 % of control | [11] 92 % of control

CCCCCCCCCCCCCCCCCC[N+]1(CCC(C)C)CCSCC1
inactive: dose: 100.0 mg/kg/injection, schedule: Q01DX001 (ip), vehicle: saline with Tween-80 88 % of control | dose: 200.0 mg/kg/injection, schedule: Q01DX001 (ip), vehicle: saline with Tween-80 97 % of control

Nc1cc(Cl)ccc1[N+](=O)[O-]
inactive: [2] 108 % of control | [3] 99 % of control | [6] 89 % of control

N=Nc1c(OC(=O)Nc2ccccc2)[nH]c2c(Cl)cc(Cl)cc12
inactive: dose: 50.0 mg/kg/injection, schedule: Q01DX005 (ip), vehicle: saline with Tween-80 100 % of control | dose: 100.0 mg/kg/injection, schedule: Q01DX005 (ip), vehicle: saline with Tween-80 100 % of control | dose: 200.0 mg/kg/injection, schedule: Q01DX005 (ip), vehicle: saline with Tween-80 98 % of control

O=C1/C(=C/c2cccnc2)CCc2ccccc21
inactive: dose: 25.0 mg/kg/injection, schedule: Q01DX009 (ip), vehicle: saline with Tween-80 104 % of control | [7] 116 % of control | [1] 108 % of control | [8] 102 % of control | [2] 105 % of control | dose: 200.0 mg/kg/injection, schedule: Q01DX009 (ip), vehicle: Klucel (hydroxypropylcellulose) (HPC) 109 % of control | [3] 95 % of control

Cc1cnc(NS(=O)(=O)c2ccc(N)cc2)nc1-c1ccccc1O
inactive: [9] 100 % of control | [10] 93 % of control | [11] 86 % of control

CCCCCCCCOC(=O)c1ccccc1OP(=O)(N(C)C)N(C)C
inactive: dose: 50.0 mg/kg/injection, schedule: Q01DX005 (ip), vehicle: saline 107 % of control | dose: 100.0 mg/kg/injection, schedule: Q01DX005 (ip), vehicle: saline 112 % of control | dose: 200.0 mg/kg/injection, schedule: Q01DX005 (ip), vehicle: saline 100 % of control

CC(=O)OC1SCC2OC(=O)OC21 (stereo not drawn)
inactive: [1] 108 % of control | [2] 95 % of control | [3] 96 % of control

CCOC(=O)/N=[N+](\[O-])c1ccc(Cl)cc1
inactive: dose: 100.0 mg/kg/injection, schedule: Q01DX001 (ip), vehicle: Klucel (hydroxypropylcellulose) (HPC) 100 % of control

Cc1cccc(/C=C/C(=O)C(CN(C)C)CN(C)C)c1
inactive: dose: 6.25 mg/kg/injection, schedule: Q01DX005 (ip), vehicle: Klucel (hydroxypropylcellulose) (HPC) 104 % of control | dose: 12.5 mg/kg/injection, schedule: Q01DX005 (ip), vehicle: Klucel (hydroxypropylcellulose) (HPC) 100 % of control

COC(=O)c1nc(N)nc(C(=O)OC)c1C(=O)Cc1ccccc1
inactive: [9] 100 % of control | [10] 103 % of control

COc1ccc2nc3ccccc3c(NCCCCCCNc3c4ccccc4nc4ccc(OC)cc34)c2c1
inactive: dose: 0.62 mg/kg/injection, schedule: Q## X009 (ip), vehicle: lactic acid 108 % of control | [4] 100 % of control | dose: 1.25 mg/kg/injection, schedule: Q01DX009 (ip), vehicle: other 107 % of control | dose: 1.25 mg/kg/injection, schedule: Q## X009 (ip), vehicle: lactic acid 111 % of control | dose: 2.5 mg/kg/injection, schedule: Q01DX009 (ip), vehicle: other 100 % of control | dose: 2.5 mg/kg/injection, schedule: Q## X009 (ip), vehicle: lactic acid 119 % of control | dose: 3.75 mg/kg/injection, schedule: Q01DX009 (ip), vehicle: other 109 % of control | dose: 5.0 mg/kg/injection, schedule: Q01DX009 (ip), vehicle: other 116 % of control | dose: 5.0 mg/kg/injection, schedule: Q## X009 (ip), vehicle: lactic acid 113 % of control

COc1cc(OC)c(OC)cc1/C=C1/N=C(c2ccccc2)OC1=O
inactive: [1] 99 % of control | [2] 92 % of control | [3] 93 % of control
